The values below are quoted from earlier work in patent publication US9643990B2, “Non-caloric sweeteners and methods for synthesizing” (Conagen Inc., priority 2014, dated 2017).

For the data set the following is noted: background statement, no method given.

Regarding `C=C1C[C@@]23CC[C@H]4[C@@](C)(CCC[C@@]4(C)C(=O)O[C@@H]4O[C@H](CO)[C@@H](O)[C@H](O)[C@H]4O)[C@@H]2CC[C@]1(O[C@@H]1O[C@H](CO)[C@@H](O)[C@H](O)[C@H]1O[C@@H]1O[C@H](CO)[C@@H](O)[C@H](O)[C@H]1O)C3` [stevioside, Stevioside], the “sweetness relative to sucrose” value is given as 100-150 times sweeter than sucrose.
In the case of Dulcoside A, the “sweetness relative to sucrose” value is given as “about 30 times sweeter than sucrose”.
As to Rebaudioside C, the “sweetness relative to sucrose” value is 40-60 times sweeter than sucrose.
